Source: patent US20250034201A1, “PRODRUGS OF GANAXOLONE” (priority 2022, published 2025)
Like-named read-outs stand apart in the source and are kept apart here.

Key:
[1] = in vitro; assay type: in vitro ADME, human
Description: For several compounds only human liver microsomal stability was tested. […] The microsomal assays were carried out with and without the addition of NADPH at a final concentration of 1 mM. For negative control samples, NADPH reagent was not added. […] Note that compounds undergo only Phase I metabolism in liver microsomes.

[2] = in vitro
Description: The plasma stability of exemplary compounds was tested using rat, mice, dog, and human plasma, according to the following protocol. For each test compound, samples at a final concentration of 2 μg/mL were prepared in blank plasma of selected species. All samples were incubated at 37° C. on a 150-RPM orbital shaker, and an aliquot was removed at pre-determined time points (0, 15, 30, 60, and 120 minutes). Samples were precipitated with three volumes of acetonitrile containing propranolol as internal standard, and centrifuged for 10 min at 2000 g before LC/MS/MS analysis of the supernatant solutions.

[3] = human liver microsomes 0.5 mg/mL, with NADPH, compound 0.5 μM, 37° C., read-out: Human Liver Microsomal Stability t1/2
[4] = human liver microsomes 0.5 mg/mL, with NADPH, compound 0.5 μM, read-out: Human Liver Microsomal Stability CLint (uL/min/mg liver) (converted)
[5] = human liver microsomes, no NADPH, compound 0.5 μM

SMILES | half-life [1, 3] | microsomal CLint [1, 4] | Human Liver Microsomal Stability no NADPH, % remain 1 h [1, 5] | Comments: production of GNX (ganaxolone) in human liver microsomes ([1]; human liver microsomes) | half-life ([1]; human, microsomes) | microsomal CLint ([1]; human, microsomes) | Human Liver Microsomal Stability no NADPH, % remain 1 h ([1]; human, microsomes) | Human plasma t90 ([2]; human plasma, 2 μg/mL, 37° C.) | Observations: stability / GNX production in human plasma ([2]; human, plasma) | half-life ([2]; human, plasma)
CC(=O)[C@H]1CC[C@H]2[C@@H]3CC[C@H]4C[C@](C)(OC(=O)COC(=O)C(C)(C)OC(=O)CN(C)CCCO)CC[C@]4(C)[C@H]3CC[C@]12C [Compound 245] | 11.4 min | 122 µL/min/mg | 69.7% | – | – | – | – | – | – | –
CC(=O)[C@H]1CC[C@H]2[C@@H]3CC[C@H]4C[C@](C)(OC(=O)OCCN(C)C)CC[C@]4(C)[C@H]3CC[C@]12C [Compound 419] | 39.5 min | 35.1 µL/min/mg | 88% | In human small amount of GNX produced | – | – | – | – | – | –
CC(=O)[C@H]1CC[C@H]2[C@@H]3CC[C@H]4C[C@](C)(OC(=O)CNC(=O)C(C)(C)O)CC[C@]4(C)[C@H]3CC[C@]12C [Compound 141] | – | – | – | In human no GNX produced | 38.3 min | 36.2 µL/min/mg | 99.7% | – | – | –
CC(=O)[C@H]1CC[C@H]2[C@@H]3CC[C@H]4C[C@](C)(OC(=O)CCC(=O)O)CC[C@]4(C)[C@H]3CC[C@]12C [Compound 407] | 79.8 min | 17.4 µL/min/mg | 99% | In human no GNX produced | – | – | – | – | – | –
CC(=O)[C@H]1CC[C@H]2[C@@H]3CC[C@H]4C[C@](C)(OC(=O)CNC(C)(C)CO)CC[C@]4(C)[C@H]3CC[C@]12C [Compound 132] | – | – | – | – | 11.7 min | 118 µL/min/mg | 1% | – | – | –
CC(=O)[C@H]1CC[C@H]2[C@@H]3CC[C@H]4C[C@](C)(OC(=O)CNC(=O)CNC(=O)[C@@H](N)C(C)C)CC[C@]4(C)[C@H]3CC[C@]12C [Compound 122] | 345 min | 4.02 µL/min/mg | 99% | In human no GNX produced | – | – | – | – | – | –
CC(=O)[C@H]1CC[C@H]2[C@@H]3CC[C@H]4C[C@](C)(OC(=O)COC(=O)C(C)(C)N5CCOCC5)CC[C@]4(C)[C@H]3CC[C@]12C [Compound 213] | 27.3 min | 50.7 µL/min/mg | 98% | In human small amount of GNX produced | – | – | – | – | – | –
CC(=O)[C@H]1CC[C@H]2[C@@H]3CC[C@H]4C[C@](C)(OC(=O)COC(=O)OCCN(C)C)CC[C@]4(C)[C@H]3CC[C@]12C [Compound 220] | 11.8 min | 117 µL/min/mg | 4% | – | – | – | – | 3.18 min | In human no GNX | 21.1 min
CC(=O)[C@H]1CC[C@H]2[C@@H]3CC[C@H]4C[C@](C)(OC(=O)CSC(C)(C)COC(=O)CN5CCOCC5)CC[C@]4(C)[C@H]3CC[C@]12C [Compound 310] | 2.9 min | 474 µL/min/mg | 1% | In human no GNX produced | – | – | – | – | – | –
CC(=O)[C@H]1CC[C@H]2[C@@H]3CC[C@H]4C[C@](C)(OC(=O)CNC(C)(C)COC(=O)C(C)C)CC[C@]4(C)[C@H]3CC[C@]12C [Compound 135] | – | – | – | – | 3.6 min | 385 µL/min/mg | 1.3% | – | – | –
CC(=O)[C@H]1CC[C@H]2[C@@H]3CC[C@H]4C[C@](C)(OC(=O)CN[C@@H](C)C(=O)O)CC[C@]4(C)[C@H]3CC[C@]12C [Compound 131] | 207 min | 6.7 µL/min/mg | 82% | In human no GNX produced | – | – | – | – | – | –
CC(=O)[C@H]1CC[C@H]2[C@@H]3CC[C@H]4C[C@](C)(OC(=O)CNCC(C)(C)O)CC[C@]4(C)[C@H]3CC[C@]12C [Compound 140] | 39.1 min | 35.5 µL/min/mg | 99% | – | – | – | – | – | – | –
